The values that follow come from ChEMBL document CHEMBL1201862, “PubChem BioAssay data set” (2004).

Among the test systems are A498; DU-145; HCT-116; HCT-15; HOP-62; HOP-92; HT-29; MDA-MB-435; NCI-H226; OVCAR-3; OVCAR-5; OVCAR-8; SF-295; SK-MEL-2; SK-OV-3; TK-10; UACC-62; UO-31; K562; PC-3.
Holding throughout (assay): DTP human tumour cell line panel, 48 h

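Cultured in 96-well plates, cells were exposed to test compound for 48 hours across five concentrations. GI50 is the concentration that inhibits growth by half.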 The source made the active and inactive calls. Cut-off read from the data, not from the text of the source: active = GI50 up to about 1.1 µM and inactive = higher.

Regarding `O=C1NC(=O)c2ccccc2/C1=C/c1ccc2c(c1)OCO2`, the GI50 in the experiment with A498 was > 100 µM (inactive); with DU-145, 40.3 µM (inactive); with HCT-116 it was 5 µM (inactive); in the experiment with HCT-15, 15.6 µM; in the experiment on HOP-62 it was 11.2 µM (inactive); with HOP-92, 27.1 µM (inactive). The GI50 with HT-29 was 20.8 µM (inactive); in the experiment on MDA-MB-435, 18.4 µM (inactive); in the experiment with NCI-H226, 27.9 µM (inactive); in the experiment with OVCAR-3, 5.37 µM (inactive); in the experiment with OVCAR-5, 29.2 µM (inactive); in the experiment with OVCAR-8, 28 µM (inactive). Moreover, the GI50 with SF-295 is 24.5 µM (inactive); with SK-MEL-2 it was 24.6 µM (inactive); with SK-OV-3 it was 27.3 µM (inactive); with TK-10, 55.7 µM (inactive); with UACC-62, 22.1 µM (inactive); with UO-31, 17.2 µM (inactive).

For the molecule `COc1ccccc1/C=C1\Sc2scc(-c3ccc(O)c(O)c3)[n+]2C1=O`, the GI50 was 21.4 µM (inactive) in the experiment with DU-145; 16.8 µM (inactive) in the experiment on HCT-116; 16.5 µM in the experiment on HCT-15; 29.7 µM (inactive) in the experiment with HOP-62; 19.7 µM (inactive) in the experiment on HOP-92; 21.4 µM (inactive) with HT-29. Besides, the GI50 was 9.51 µM (inactive) with K562; 27.2 µM (inactive) in the experiment with MDA-MB-435; 27.9 µM (inactive) in the experiment on NCI-H226; 16.6 µM (inactive) in the experiment on OVCAR-3; 26.5 µM (inactive) in the experiment with OVCAR-5; 39.9 µM (inactive) in the experiment with OVCAR-8. Further, the GI50 is 28.2 µM (inactive) in the experiment with PC-3; 24.9 µM (inactive) in the experiment with SF-295; 17.2 µM (inactive) with SK-MEL-2; 21.4 µM (inactive) with SK-OV-3; 28.5 µM (inactive) in the experiment on TK-10; 16.7 µM (inactive) with UACC-62. Further, the GI50 in the experiment with UO-31 is 18.7 µM (inactive).

In the case of `Cc1ccc(-c2n[nH]c(=O)n2NC(=O)c2ccccc2C(=O)O)cc1`, the GI50 with DU-145 is > 100 µM (inactive); in the experiment on HCT-116, > 100 µM (inactive); in the experiment on HCT-15 it was above 100 µM; in the experiment with HOP-62, > 100 µM (inactive); with HOP-92 it was > 100 µM (inactive); in the experiment on HT-29, > 100 µM (inactive). For the same molecule, the GI50 in the experiment on K562, with MDA-MB-435, in the experiment on NCI-H226, with OVCAR-3, with OVCAR-8 and in the experiment on PC-3 was > 100 µM (inactive) throughout. Also, the GI50 with SF-295, with SK-MEL-2, in the experiment with TK-10, with UACC-62 and in the experiment on UO-31 was > 100 µM (inactive) throughout.

In the case of `CCSc1c(C)c2c(n(Cc3ccc(OC)cc3)c1=O)Cc1ccccc1C2`, the GI50 in the experiment with DU-145 was 24.7 µM (inactive); with HCT-116 it was 11.2 µM (inactive); in the experiment with HCT-15, 4.52 µM; with HOP-62 it was 23.1 µM (inactive); in the experiment with HT-29, 28.2 µM (inactive); in the experiment with K562, 16.5 µM (inactive). In addition, the GI50 with MDA-MB-435 is 25.1 µM (inactive); in the experiment with NCI-H226 it was 36.5 µM (inactive); in the experiment with OVCAR-3, 20.1 µM (inactive); in the experiment with OVCAR-5, 46.9 µM (inactive); in the experiment on OVCAR-8, 14.9 µM (inactive); in the experiment with PC-3, 15.3 µM (inactive). Further, the GI50 was 32.1 µM (inactive) in the experiment on SF-295; 8.3 µM (inactive) with SK-MEL-2; 39.5 µM (inactive) in the experiment on SK-OV-3; 27.2 µM (inactive) in the experiment on TK-10; 22.9 µM (inactive) in the experiment with UACC-62; 12.4 µM (inactive) in the experiment with UO-31.

Take `CS(=O)(=O)OCCN1CCC2(CC1)SSC1(CCN(CCOS(C)(=O)=O)CC1)S2`: the GI50 with A498 is 0.352 µM (active); with HCT-116, 53.2 µM (inactive); in the experiment on HCT-15 it was above 100 µM; with HOP-62 it was > 100 µM (inactive); with HT-29, 50.5 µM (inactive); with K562, 64.4 µM (inactive). The GI50 in the experiment with MDA-MB-435 is > 100 µM (inactive); in the experiment with OVCAR-3 it was 29.2 µM (inactive); in the experiment on OVCAR-5, 24 µM (inactive); in the experiment on OVCAR-8 it was > 100 µM (inactive); in the experiment with PC-3 it was 44.7 µM (inactive); in the experiment with SF-295 it was 45.4 µM (inactive). The GI50 is > 100 µM (inactive) with SK-MEL-2; 64.4 µM (inactive) in the experiment on SK-OV-3; 15.7 µM (inactive) in the experiment with TK-10; 30.1 µM (inactive) with UACC-62; 45 µM (inactive) with UO-31.

For the molecule `Cc1nc(-c2cc3cc([N+](=O)[O-])ccc3oc2=O)cs1`, the GI50 was > 100 µM (inactive) in the experiment with DU-145; > 100 µM (inactive) with HCT-116; above 100 µM in the experiment with HCT-15; > 100 µM (inactive) with HOP-62; 67.3 µM (inactive) with HOP-92; > 100 µM (inactive) in the experiment on HT-29. In addition, the GI50 in the experiment with K562 was 71.8 µM (inactive); with MDA-MB-435 it was > 100 µM (inactive); with NCI-H226, > 100 µM (inactive); in the experiment with OVCAR-5, > 100 µM (inactive); in the experiment with PC-3, > 100 µM (inactive); in the experiment with SF-295, > 100 µM (inactive). Also, the GI50 in the experiment with SK-MEL-2, with SK-OV-3, with TK-10, in the experiment on UACC-62 and in the experiment on UO-31 was > 100 µM (inactive) each time.

Take `CCc1n[nH]c(=O)n1O`: the GI50 in the experiment with A498 is > 100 µM (inactive); in the experiment on DU-145, > 100 µM (inactive); in the experiment on HCT-116, > 100 µM (inactive); with HOP-62, > 100 µM (inactive); with HOP-92, 0.0738 µM (active); with HT-29, > 100 µM (inactive). Besides, the GI50 with K562, with MDA-MB-435, in the experiment on NCI-H226, in the experiment on OVCAR-3, with OVCAR-8 and in the experiment with SF-295 was > 100 µM (inactive) throughout. The GI50 with SK-MEL-2, in the experiment with SK-OV-3, with TK-10, in the experiment on UACC-62 and in the experiment on UO-31 was > 100 µM (inactive) each time.

For `COC(=O)C1=C(C)NC(C)=C(C(=O)OC)C1c1ccc(/[N+]([O-])=C/c2ccccc2)cc1`, the GI50 with DU-145 is > 100 µM (inactive); in the experiment with HCT-116 it was 16.4 µM (inactive); in the experiment on HCT-15, 42.5 µM; in the experiment with HOP-62 it was 83.2 µM (inactive); with HOP-92, 20.8 µM (inactive); in the experiment on HT-29 it was 48.9 µM (inactive). Further, the GI50 in the experiment with K562 was 23.6 µM (inactive); with MDA-MB-435 it was 30.4 µM (inactive); in the experiment with NCI-H226, 62.4 µM (inactive); in the experiment with OVCAR-3 it was 18.9 µM (inactive); in the experiment with OVCAR-5, > 100 µM (inactive); with OVCAR-8 it was 19.7 µM (inactive). The GI50 with PC-3 was 64.1 µM (inactive); in the experiment with SF-295, 46.9 µM (inactive); in the experiment on SK-MEL-2, > 100 µM (inactive); with SK-OV-3, > 100 µM (inactive); in the experiment on TK-10, 92.9 µM (inactive); with UACC-62, 37.6 µM (inactive). The GI50 with UO-31 was 37.1 µM (inactive).

As for `c1ccc(Cn2c(-c3ccc(-c4ccccc4)cc3)cc3ccccc32)cc1`, the GI50 is > 100 µM (inactive) in the experiment with DU-145; > 100 µM (inactive) in the experiment on HCT-116; above 100 µM in the experiment with HCT-15; > 100 µM (inactive) in the experiment with HOP-62; > 100 µM (inactive) in the experiment with HOP-92; > 100 µM (inactive) in the experiment on HT-29. For the same molecule, the GI50 in the experiment on MDA-MB-435, in the experiment with NCI-H226, in the experiment with OVCAR-3, in the experiment on OVCAR-5, with OVCAR-8 and in the experiment on PC-3 was > 100 µM (inactive) each time. The GI50 in the experiment on SF-295 was > 100 µM (inactive); in the experiment on SK-MEL-2 it was 94.6 µM (inactive); with SK-OV-3, > 100 µM (inactive); in the experiment on TK-10, > 100 µM (inactive); in the experiment on UACC-62 it was > 100 µM (inactive); in the experiment with UO-31 it was > 100 µM (inactive).

With `Cc1ccc(-c2c(C#N)c(-c3ccc([N+](=O)[O-])cc3)c(C#N)c(=O)n2NS(=O)(=O)c2ccc(C)cc2)cc1`, the GI50 is 67.8 µM (inactive) in the experiment on A498; 36.6 µM (inactive) in the experiment with HCT-116; 41.6 µM in the experiment on HCT-15; 67.1 µM (inactive) with HOP-62; 23.5 µM (inactive) in the experiment on HOP-92; 56.4 µM (inactive) in the experiment on HT-29. Further, the GI50 in the experiment on K562 is 46.2 µM (inactive); in the experiment on MDA-MB-435 it was 86.9 µM (inactive); in the experiment with NCI-H226, > 100 µM (inactive); in the experiment with OVCAR-3, 21.2 µM (inactive); in the experiment on OVCAR-5 it was > 100 µM (inactive); in the experiment on OVCAR-8, 49.1 µM (inactive). Besides, the GI50 with PC-3 is 42.8 µM (inactive); with SF-295, 40.9 µM (inactive); with SK-MEL-2 it was 62.4 µM (inactive); in the experiment on SK-OV-3, 36.6 µM (inactive); in the experiment with TK-10 it was 51.3 µM (inactive); in the experiment on UACC-62, 31 µM (inactive).

`Clc1ccc(C(c2ccc(Cl)cc2)c2cncnc2)cc1`: the GI50 in the experiment with DU-145 is 17.5 µM (inactive); in the experiment with HCT-116 it was 13.9 µM (inactive); with HCT-15, 19.6 µM; in the experiment on HOP-62 it was 17.2 µM (inactive); with HT-29 it was 15.1 µM (inactive); with K562 it was 21.9 µM (inactive). Further, the GI50 is 13.7 µM (inactive) in the experiment with MDA-MB-435; 14.7 µM (inactive) in the experiment with OVCAR-3; 15.6 µM (inactive) in the experiment with OVCAR-5; 20.3 µM (inactive) with OVCAR-8; 14.2 µM (inactive) in the experiment on PC-3; 17.9 µM (inactive) in the experiment on SF-295. Besides, the GI50 is 16 µM (inactive) in the experiment on SK-OV-3, 16.9 µM (inactive) with TK-10, 15.2 µM (inactive) in the experiment on UACC-62 and 11.9 µM (inactive) in the experiment on UO-31.

Broadly, the GI50 is the concentration giving 50% growth inhibition.
